Assay results reported in article PMC5584945, “Evaluation of robenidine analog NCL195 as a novel broad-spectrum antibacterial agent” (PLoS ONE, 2017).
In brackets after ≈: the same amount, converted by molar mass.

Key:
S. pneumoniae = assay: MIC, broth micro-dilution (CLSI); assay type: cell-based, Streptococcus pneumoniae; conditions: for MIC / MIC50 / MIC90: Streptococcus pneumoniae
S. pneumoniae D39 = assay: Minimum bactericidal concentration (MBC); assay type: cell-based; conditions: Streptococcus pneumoniae, 99.9% colony count reduction, read-out: MBC
[1] = tested on: vancomycin-resistant enterococci (VRE); assay: MIC, broth micro-dilution (CLSI); assay type: cell-based, enterococci (porcine isolates)

## Cc1ccc(/C=N/Nc2cc(N/N=C/c3ccc(C)cc3)nc(N)n2)cc1 [NCL195, 4,6-bis(2-((E)-4-methylbenzylidene)hydrazinyl)pyrimidin-2-amine]
S. pneumoniae; 21 isolates
  MIC range: 2 to 8 mg/L
S. pneumoniae; S1 Table isolates, 5% FBS + 3% washed RBC
  MIC range: 2 to 8 mg/L
S. pneumoniae; S1 Table isolates, 10% FBS + 3% washed RBC
  MIC range: 2 to 8 mg/L
S. pneumoniae; S. pneumoniae D39, human, horse or mouse serum
  Change of MIC in the presence of serum: remained the same
S. pneumoniae; A66.1 (serotype 3), 5% FBS
  MIC: 8 mg/L (≈ 22.3 µM)
S. pneumoniae; A66.1 (serotype 3), 10% FBS
  MIC: 8 mg/L (≈ 22.3 µM)
S. pneumoniae; ATCC6303, ATCC 6303 (serotype 3), 5% FBS + 3% washed RBC
  MIC: 4 mg/L
S. pneumoniae; ATCC6303, ATCC 6303 (serotype 3), 10% FBS + 3% washed RBC
  MIC: 4 mg/L
S. pneumoniae; D39/D39LUX (serotype 2), 5% FBS
  MIC: 8 mg/L (≈ 22.3 µM)
S. pneumoniae; D39/D39LUX (serotype 2), 10% FBS
  MIC: 8 mg/L (≈ 22.3 µM)
S. pneumoniae; EF3030 (serotype 19F), 5% FBS
  MIC: 8 mg/L (≈ 22.3 µM)
S. pneumoniae; EF3030 (serotype 19F), 10% FBS
  MIC: 8 mg/L (≈ 22.3 µM)
S. pneumoniae; L82016 (serotype 6B), 5% FBS
  MIC: 4 mg/L (≈ 11.1 µM)
S. pneumoniae; L82016 (serotype 6B), 10% FBS
  MIC: 8 mg/L (≈ 22.3 µM)
S. pneumoniae; P9 (serotype 6A), 5% FBS
  MIC: 8 mg/L (≈ 22.3 µM)
S. pneumoniae; P9 (serotype 6A), 10% FBS
  MIC: 8 mg/L (≈ 22.3 µM)
S. pneumoniae; P21 (serotype 3), 5% FBS
  MIC: 8 mg/L (≈ 22.3 µM)
S. pneumoniae; P21 (serotype 3), 10% FBS
  MIC: 8 mg/L (≈ 22.3 µM)
S. pneumoniae; S1 Table isolates, 5% FBS
  MIC50: 4 mg/L (≈ 11.1 µM)
  MIC90: 8 mg/L (≈ 22.3 µM)
S. pneumoniae; S1 Table isolates, 10% FBS
  MIC50: 8 mg/L (≈ 22.3 µM)
  MIC90: 8 mg/L (≈ 22.3 µM)
S. pneumoniae; TIGR4 (serotype 4), 5% FBS
  MIC: 4 mg/L (≈ 11.1 µM)
S. pneumoniae; TIGR4 (serotype 4), 10% FBS
  MIC: 4 mg/L (≈ 11.1 µM)
S. pneumoniae; WCH16 (serotype 6A), 5% FBS
  MIC: 8 mg/L (≈ 22.3 µM)
S. pneumoniae; WCH16 (serotype 6A), 10% FBS
  MIC: 8 mg/L (≈ 22.3 µM)
S. pneumoniae; WCH43 (serotype 4), 5% FBS
  MIC: 4 mg/L (≈ 11.1 µM)
S. pneumoniae; WCH43 (serotype 4), 10% FBS
  MIC: 4 mg/L (≈ 11.1 µM)
S. pneumoniae; WCH46 (serotype 4), 5% FBS
  MIC: 4 mg/L (≈ 11.1 µM)
S. pneumoniae; WCH46 (serotype 4), 10% FBS
  MIC: 4 mg/L (≈ 11.1 µM)
S. pneumoniae; WCH57 (serotype 8), 5% FBS
  MIC: 4 mg/L (≈ 11.1 µM)
S. pneumoniae; WCH57 (serotype 8), 10% FBS
  MIC: 4 mg/L (≈ 11.1 µM)
S. pneumoniae; WCH77 (serotype 5), 5% FBS
  MIC: 2 mg/L (≈ 5.56 µM)
S. pneumoniae; WCH77 (serotype 5), 10% FBS
  MIC: 2 mg/L (≈ 5.56 µM)
S. pneumoniae; WCH86 (serotype 4), 5% FBS
  MIC: 4 mg/L (≈ 11.1 µM)
S. pneumoniae; WCH86 (serotype 4), 10% FBS
  MIC: 4 mg/L (≈ 11.1 µM)
S. pneumoniae; WCH89 (serotype 7), 5% FBS
  MIC: 8 mg/L (≈ 22.3 µM)
S. pneumoniae; WCH89 (serotype 7), 10% FBS
  MIC: 8 mg/L (≈ 22.3 µM)
S. pneumoniae; WCH92 (serotype 4), 5% FBS
  MIC: 4 mg/L (≈ 11.1 µM)
S. pneumoniae; WCH92 (serotype 4), 10% FBS
  MIC: 4 mg/L (≈ 11.1 µM)
S. pneumoniae; WCH137 (serotype 6A), 5% FBS
  MIC: 8 mg/L (≈ 22.3 µM)
S. pneumoniae; WCH137 (serotype 6A), 10% FBS
  MIC: 8 mg/L (≈ 22.3 µM)
S. pneumoniae; WCH158 (serotype 19F), 5% FBS
  MIC: 4 mg/L (≈ 11.1 µM)
S. pneumoniae; WCH158 (serotype 19F), 10% FBS
  MIC: 4 mg/L (≈ 11.1 µM)
S. pneumoniae; WCH184 (serotype 19F), 5% FBS
  MIC: 8 mg/L (≈ 22.3 µM)
S. pneumoniae; WCH184 (serotype 19F), 10% FBS
  MIC: 8 mg/L (≈ 22.3 µM)
S. pneumoniae; WCH211 (serotype 11), 5% FBS
  MIC: 4 mg/L (≈ 11.1 µM)
S. pneumoniae; WCH211 (serotype 11), 10% FBS
  MIC: 4 mg/L (≈ 11.1 µM)
S. pneumoniae; WU2 (serotype 3), 5% FBS
  MIC: 8 mg/L (≈ 22.3 µM)
S. pneumoniae; WU2 (serotype 3), 10% FBS
  MIC: 8 mg/L (≈ 22.3 µM)
S. pneumoniae D39
  MBC: 8 mg/L (≈ 22.3 µM)
[1]; 10% FBS versus no FBS
  Fold increase of MIC range in the presence of 10% FBS: 4 fold
[1]; 20 isolates
  MIC range: 2 to 4 mg/L
[1]; Enterococcus, VRE, S3 Table isolates, 10% FBS
  MIC50: 16 mg/L (≈ 44.5 µM)
